How the values were obtained:
[1] = tested on: Eosinophil cationic protein (ECP); assay: ECP in the nasal secretions by ELISA; format: in vivo, human
Method: Two pieces of 1.0 centimeter (cm)×1.5 cm sterile medical sponge are gently placed into the patient's bilateral nasal cavity for 1-5 minutes (min). After the sponge adsorbs enough the nasal secretions, the sponge is gently removed and put into a 2 milliliters (mL) syringe. The nasal secretions are squeezed out and collected in a 1.5 mL centrifuge tube, centrifuged at 3000 revolutions per minute (rpm) for 5 min, and the supernatant is taken and placed in a refrigerator at −80° C. for testing. Eosinophil cationic protein (ECP) in the nasal secretions is detected by enzyme-linked immunosorbent assay (ELISA). The ECP-ELISA kit is from Zhongmin Taike Biotechnology Co., Ltd. Cytokine levels of interleukin (IL)-2, IL-4, IL-5, IL-6, IL-13, IL-17A, IL-28A, IL-33, interferon (IFN)-α, IFN-β, IFN-γ, IFN-λ, and Eotaxin in the nasal secretions are measured by using Luminex (R&D; LXSAHM-13).

[2] = tested on: patients with the intractable AR; assay: Interventional non-randomized cohort study of GCV for intractable AR: clinical symptom scores (VAS, ARCT, TNSS); format: in vivo, human; details: for TNSS after GCV treatment / rhinocnesmus score after GCV treatment / sneezing score after GCV treatment / rhinocleisis score after GCV treatment / rhinorrhea score after GCV treatment / ARCT after GCV treatment / VAS after GCV treatment: 14 days; for ARCT after GCV then routine anti-allergic medicines / TNSS after GCV then routine anti-allergic medicines / VAS after GCV then routine anti-allergic medicines / rhinocleisis score after GCV then routine anti-allergic medicines / rhinocnesmus score after GCV then routine anti-allergic medicines / rhinorrhea score after GCV then routine anti-allergic medicines / sneezing score after GCV then routine anti-allergic medicines: then routine anti-allergic medicines 14 days
Text: All patients are recruited from outpatient department of otolaryngology, the patients with AR complain of poor efficacy of routine anti-allergic medicines (nasal glucocorticoid sprays, oral antihistamines, nasal antihistamine sprays and oral leukotriene receptor antagonists). The inclusion and exclusion criteria of recruiting are as follows.
The exclusion criteria: (1) patients have viral/bacterial infection symptoms, fevers and/or other systemic manifestations in the past 2 weeks; (2) patients have other nasal diseases, such as nasal polyps or nasal tumors; (3) patients have a history of nasal surgery in the past 6 months; (4) patients are allergic to the GCV; (5) patients are pregnant women and patients are preparing for pregnancy; (6) the patients have severe neutropenia (absolute neutrophil count<0.5×10^9 per liter) or severe thrombocytopenia (platelet count<2.5×10^10 per liter).
An interventional non-randomized cohort study is conducted. Selected patients are treated with the routine anti-allergic medicines for 2 weeks to exclude the illusion of poor efficacy due to non-standard medication (combined use of nasal spray hormones and oral antihistamines to exclude treatment, and the selected patients are switched to with another brand of similar medicines if the selected patients have previously used the above medicines but no effect).
The selected patients are grouped according to responses to the routine anti-allergic medicines. If the routine anti-allergic medicines treatments are effective, the selected patients are classified as a common AR group; if ineffective, the selected patients are defined as intractable AR patients. The intractable AR patients are treated with the GCV for 2 weeks (oral, 500 milligrams per time (mg/time) twice a day for the patients≥14 years old; 250 mg/time twice a day for the patients<14 years old). If the GCV treatments are ineffective, the patients are classified as a GCV ineffective group; if effective, the patients are classified as GCV effective group. After 2 weeks of the GCV treatment, the patients in the GCV effective group, if total nasal symptom score (TNSS)≥4 or visual analogue scale (VAS)≥3 centimeters (cm) after the GCV treatment, […], conversely, the GCV treatment ends. The nasal symptoms are evaluated at each follow-up. In this situation, nasal secretion smears, nasal secretions, nasal scraping epithelial cells and peripheral blood are collected.
The visual analogue scale (VAS): the severity of all comprehensive symptoms is assessed by the VAS, ranging from 0 (no symptoms) to 10 centimeters (most severe and imaginable symptoms). Allergic rhinitis and its impact on asthma (ARIA) 2008 guideline classification: “mild” AR=0-3 centimeters, “moderate” AR=3.1-7 centimeters, “severe” AR=7.1-10 centimeters.
Allergic rhinitis control test (ARCT) is a self-administered questionnaire on AR control verified by Demoly et al. It consists of five questions with a score of 1-5 points for each question scored and a total score of 5-25 points. The intractable AR is defined as patients with ARCT score<20 points after 2 weeks of treatment.
Nasal symptom score: rhinocleisis, rhinocnesmus, sneezing, rhinorrhea are scored separately. No symptoms=0; mild (mild symptoms, easy to tolerate)=1; moderate (obvious symptoms, annoying, but tolerable)=2; severe (symptoms are not tolerable, affecting daily life or sleep)=3. The total nasal symptom score (TNSS) is the sum of all nasal symptom scores, ranging from 0 to 12.

[3] = Case 1, GCV 250 mg/time twice a day, before 1
[4] = Case 1, GCV 250 mg/time twice a day, before 3
[5] = Case 2, GCV 500 mg/time twice a day, before 2
[6] = Case 2, GCV 500 mg/time twice a day, before 7
[7] = Case 2, GCV 14 days, then nasal spray hormone plus oral antihistamines 14 days
[8] = Case 3, GCV 250 mg/time twice a day, before 3
[9] = Case 4, GCV 500 mg/time twice a day, before 1
[10] = Case 5, GCV 500 mg/time twice a day, before 3

Compound: Nc1nc(O)c2ncn(COC(CO)CO)c2n1 [GCV, Ganciclovir]
- ECP in nasal secretions, change after GCV treatment ([1]; GCV effective group and GCV ineffective group): no significant change
- ECP in nasal secretions, after treatment ([1]; GCV effective group, before 42.38 ± 41.04): 20.18 ± 18.42 µg/mL
- ECP in nasal secretions, after treatment ([1]; GCV ineffective group, before 82 ± 18.01): 45.993 ± 37.12 µg/mL
- TNSS after GCV treatment ([2]; Case 1 (person one), GCV 250 mg/time twice a day, before 8): 3 points
- rhinocnesmus score after GCV treatment [2, 3]: 1 points
- sneezing score after GCV treatment [2, 3]: 0 points
- rhinocleisis score after GCV treatment [2, 4]: 1 points
- rhinorrhea score after GCV treatment [2, 4]: 1 points
- ARCT after GCV treatment ([2]; Case 1, GCV 250 mg/time twice a day, before 5): 21 points
- VAS after GCV treatment ([2]; Case 1, GCV 250 mg/time twice a day, before 8): 4.5 cm
- ARCT after GCV then routine anti-allergic medicines ([2]; Case 1, GCV 14 days): 24 points
- TNSS after GCV then routine anti-allergic medicines ([2]; Case 1, GCV 14 days): 2 points
- VAS after GCV then routine anti-allergic medicines ([2]; Case 1, GCV 14 days): 2.5 cm
- rhinocleisis score after GCV then routine anti-allergic medicines ([2]; Case 1, GCV 14 days): 1 points
- rhinocnesmus score after GCV then routine anti-allergic medicines ([2]; Case 1, GCV 14 days): 0 points
- rhinorrhea score after GCV then routine anti-allergic medicines ([2]; Case 1, GCV 14 days): 1 points
- sneezing score after GCV then routine anti-allergic medicines ([2]; Case 1, GCV 14 days): 0 points
- rhinocleisis score after GCV treatment [2, 5]: 2 points
- rhinocnesmus score after GCV treatment [2, 5]: 2 points
- rhinorrhea score after GCV treatment [2, 5]: 0 points
- sneezing score after GCV treatment [2, 5]: 0 points
- ARCT after GCV treatment [2, 6]: 20 points
- VAS after GCV treatment [2, 6]: 4 cm
- TNSS after GCV treatment ([2]; Case 2, GCV 500 mg/time twice a day, before 8): 4 points
- ARCT after GCV then anti-allergic medicines [2, 7]: 25 points
- TNSS after GCV then anti-allergic medicines [2, 7]: 1 point
- VAS after GCV then anti-allergic medicines [2, 7]: 2 cm
- rhinocleisis score after GCV then anti-allergic medicines [2, 7]: 1 point
- rhinocnesmus score after GCV then anti-allergic medicines [2, 7]: 0 point
- rhinorrhea score after GCV then anti-allergic medicines [2, 7]: 0 point
- sneezing score after GCV then anti-allergic medicines [2, 7]: 0 point
- rhinocleisis score after GCV treatment [2, 8]: 2 points
- rhinocnesmus score after GCV treatment [2, 8]: 1 points
- rhinorrhea score after GCV treatment [2, 8]: 3 points
- sneezing score after GCV treatment [2, 8]: 3 points
- ARCT after GCV treatment ([2]; Case 3, GCV 250 mg/time twice a day, before 5): 22 points
- VAS after GCV treatment ([2]; Case 3, GCV 250 mg/time twice a day, before 10): 5 cm
- TNSS after GCV treatment ([2]; Case 3, GCV 250 mg/time twice a day, before 12): 9 points
- ARCT after GCV then routine anti-allergic medicines ([2]; Case 3, GCV 14 days): 25 points
- TNSS after GCV then routine anti-allergic medicines ([2]; Case 3, GCV 14 days): 3 points
- VAS after GCV then routine anti-allergic medicines ([2]; Case 3, GCV 14 days): 2.5 cm
- rhinocleisis score after GCV then routine anti-allergic medicines ([2]; Case 3, GCV 14 days): 1 point
- rhinocnesmus score after GCV then routine anti-allergic medicines ([2]; Case 3, GCV 14 days): 0 point
- rhinorrhea score after GCV then routine anti-allergic medicines ([2]; Case 3, GCV 14 days): 1 point
- sneezing score after GCV then routine anti-allergic medicines ([2]; Case 3, GCV 14 days): 1 point
- ARCT after GCV treatment ([2]; Case 4, GCV 500 mg/time twice a day): 24 points
- rhinocnesmus score after GCV treatment [2, 9]: 0 point
- sneezing score after GCV treatment [2, 9]: 0 point
- rhinorrhea score after GCV treatment ([2]; Case 4, GCV 500 mg/time twice a day, before 2): 1 point
- rhinocleisis score after GCV treatment ([2]; Case 4, GCV 500 mg/time twice a day, before 3): 1 point
- TNSS after GCV treatment ([2]; Case 4, GCV 500 mg/time twice a day, before 7): 2 points
- VAS after GCV treatment ([2]; Case 4, GCV 500 mg/time twice a day, before 9): 1.5 cm
- nasal symptoms after GCV then nasal spray hormone ([2]; Case 4, GCV 14 days, then 7 days of the nasal spray hormone): disappear completely
- rhinocnesmus score after GCV treatment ([2]; Case 5, GCV 500 mg/time twice a day, before 0): 0 point
- rhinorrhea score after GCV treatment ([2]; Case 5, GCV 500 mg/time twice a day, before 1): 1 point
- rhinocleisis score after GCV treatment [2, 10]: 1 point
- sneezing score after GCV treatment [2, 10]: 0 point
- ARCT after GCV treatment ([2]; Case 5, GCV 500 mg/time twice a day, before 5): 24 points
- TNSS after GCV treatment ([2]; Case 5, GCV 500 mg/time twice a day, before 7): 2 points
- VAS after GCV treatment ([2]; Case 5, GCV 500 mg/time twice a day, before 10): 2.2 cm
- nasal symptom (rhinocleisis, rhinocnesmus, sneezing, rhinorrhea) scores before and after GCV treatment (FIG. 2) ([2]; GCV effective group): significantly improved
- ARCT, VAS and TNSS scores during diagnosis and treatment (FIGS. 1A-1C) ([2]; GCV effective group n=26, after 2 weeks GCV): significantly ameliorates the nasal symptoms
- nasal symptoms after re-treatment with previously ineffective anti-allergic medicines following GCV ([2]; n=15 with TNSS≥4 or VAS≥3 cm after 2 weeks GCV, then anti-allergic medicines 2 weeks): could further reduce the nasal symptoms
- intractable AR patients ineffective after the GCV treatment ([2]; oral GCV 2 weeks, 14/40, ineffective = ARCT<20): 35%

— patent publication US20240277717A1, “APPLICATION OF GANCICLOVIR IN PREPAPRATION OF MEDICINE FOR TREATING ALLERGIC RHINITIS” (Union Hospital, Tongji Medical College, Huazhong University …, priority 2023, published 2024)
